The test system of one assay is unfractionated LDL. As to the kind of experiment: Copper-induced oxidation of unfractionated LDL, TBARS (Example 7). The conditions noted are these: 10 μM, 1 hr. The format is biochemical, human. As for the experimental part: (§1) An experiment to study the antioxidant effect of EPA in LDL and small dense […] performed. […] Fenofibrate, gemfibrozil, and niacin were purchased from Sigma-Aldrich. […] Vitamin E was also incubated with sample aliquots as a positive control.

The subject of assay [1] is sdLDL. As to the kind of experiment: Copper-induced sdLDL oxidation (Example 12). It counts as biochemical, human. The conditions noted are these: 10.0 μM, copper-induced oxidation 1 hour, vs vehicle.
For the next assay, the system named is human sdLDL. Put plainly: Copper-induced sdLDL oxidation, TBARS (Example 7). The format is biochemical. The procedure:
as §1

A short description of assay [2]: Lipid hydroperoxide (LOOH) formation in cholesterol-enriched DLPC model membranes under autoxidation (Example 3). It counts as biochemical. The conditions noted are these: EPA:lipid 1:30, C/P 0.6:1, autoxidation 37° C. 72 hours, vs untreated controls. The procedure:
Levels of lipid hydroperoxides were also measured in cholesterol-enriched membrane prepared in the absence of EPA as a control. […] CHOD-iodide color reagent (stock) was prepared according to a procedure modified from El-Saadani et […], Goher […], Jurgens G. A spectrophotometric assay for lipid peroxides in serum lipoproteins using commercially available reagent. J. Lipid. […] Membrane samples consisting of DLPC±cholesterol were prepared as follows. Component lipids (in chloroform) were transferred to 13×100 mm test tubes and shell-dried under a steady stream of nitrogen gas while vortex mixing. The lipid was co-dried with EPA. Residual solvent was removed by drying for a minimum of 3 h under vacuum. After desiccation, each membrane sample was resuspended in diffraction buffer (0.5 mM HEPES, 154 mM NaCl, pH 7.3) to yield a final phospholipid concentration of 1.0 mg/mL. Multilamellar vesicles (MLV) were formed by vortex mixing for 3 minutes at ambient temperature. […] Absorbances were measured against a CHOD blank at 365 nm using a Beckman DU-640 spectrophotometer. The CHOD colorimetric assay is based on the oxidation of iodide (I^-) by lipid hydroperoxides (LOOH) and proceeds according to the following reaction scheme: […]3^- The quantity of triiodide anion (I3^-) liberated in this reaction is directly proportional to the amount of lipid hydroperoxides present in the membrane sample.

A short description of assay [3]: X-ray diffraction of cholesterol domains in POPC/cholesterol model membranes, C/P 1.5:1 (Example 9). The conditions noted are these: drug-to-phospholipid mole ratio 1:30, C/P 1.5:1. As for the experimental part:
Multilamellar vesicles (MLVs) were prepared as binary mixtures that include palmitoyloleoylphosphatidylcholine (POPC) (1.0 mg total phospholipid per sample) and cholesterol at an elevated cholesterol-to-phospholipid (C/P) mole ratio of 1.5:1. […] Samples were shell-dried under nitrogen gas and placed under vacuum for 3 hours to remove residual solvent at room temperature. After desiccation, each sample was resuspended in saline buffer (0.5 mM HEPES, 154 mM NaCl, pH 7.3) to yield a final phospholipid concentration of 2.5 mg/mL. Lipid suspensions were then vortexed for 3 minutes at ambient temperature to form MLVs.
Briefly, a 100 μL aliquot of each MLV preparation (containing 250 μg MLV) was transferred to a Lucite® sedimentation cell fitted with an aluminum foil substrate designed to collect MLVs into a single membrane pellet upon centrifugation. Samples were then loaded into a Sorvall AH-629 swinging bucket rotor (DuPont Corp., Wilmington, Del.) and centrifuged at 35,000 g, 5° C., for 90 minutes.
After centrifugal orientation, sample supernatants were aspirated and aluminum foil substrates, each supporting a single membrane pellet, were removed from the sedimentation cells. Sample pellets were dried for 5-10 minutes at ambient conditions, mounted onto curved glass supports, and placed in hermetically-sealed, brass or glass containers (for immediate analysis or temporary storage, respectively). All x-ray diffraction experiments were conducted at 20° C., 74% relative humidity. The latter was established by exposing membrane samples to saturated solutions of […] (K2C4H4O6.½H2O) for at least 1 hour prior to experimental analysis.
Oriented membrane samples were aligned at grazing incidence with respect to a collimated, mono-chromatic CuKα x-ray beam (Kα1 and Kα2 unresolved; λ=1.54 Å) produced by a Rigaku Rotaflex RU-200, high-brilliance microfocus generator (Rigaku-MSC, The Woodlands, Tex.) as previously described (Mason et al., Biophys. J., vol. 55(4), pages 769-778 (1989)). The samples were initially subjected to x-ray diffraction analysis at least 12 hours after formation of the membrane pellets and retested for up to several days. Analytical x-rays were generated by electron bombardment of a rotating copper anode and are filtered through a thin nickel foil to provide monochromatic radiation (λ=1.54 Å). Collimation of the x-ray beam was achieved using a single Franks mirror. […]
The d-space for any given membrane multi bilayer is a measurement of the unit cell periodicity of the membrane lipid bilayer (e.g., the distance from the center of one lipid bilayer to the next including surface hydration), and is calculated from Bragg's Law, hλ=2d sin θ, where h is the diffraction order, λ is the wavelength of the x-ray radiation (1.54 Å), d is the membrane lipid bilayer unit cell periodicity, and θ is the Bragg angle equal to one-half the angle between the incident beam and scattered beam.
The presence of cholesterol domains in a given membrane sample results in the production of distinct Bragg (diffraction) peaks having singular periodicity values of 34 and 17 Å (typically referred to as first- and second-order cholesterol domain peaks). Under the specific temperature and relative humidity conditions established for these experiments, the second-order, 17 Å cholesterol domain peak was well-delineated from other, neighboring cholesterol and phospholipid diffraction peaks and was thus used to quantitate relative cholesterol domain peak intensity. […]

Assay [4] has as its system sdLDL. As to the kind of experiment: Glucose-induced sdLDL oxidation, MDA/TBARS (Example 10). It counts as biochemical, human. Conditions: 10.0 μM, glucose 200 mg/dL. As for the experimental part:
Vitamin E (α-tocopherol) purchased from Sigma-Aldrich was prepared in ethanol at 1.0 mM (ε=3.06×10^4 M^−1 cm^−1 at 294 nm) prior to experimental use. Test compounds were further diluted in ethanol or aqueous buffer as needed. Phosphate Buffered Saline (PBS) purchased from Sigma-Aldrich was prepared in double distilled water at 10 mM (138 mM NaCl, 2.7 mM KCl, pH 7.4). […] Lipid oxidation was measured by the colorimetric detection of malondialdehyde (MDA), a marker of oxidative stress.

The values below come from patent US11446269B2, “Methods of reducing or preventing oxidation of small dense LDL or membrane polyunsaturated fatty acids” (Amarin Pharmaceuticals Ireland Limited, priority 2014, dated 2022).

The structures appear in SMILES notation. Values joined by “and” are separate entries in the source; they are usually repeats but may differ in a detail not shown here. Equal entries are not always repeated. Bounds are passed on as bounds.

Turning to `CC/C=C\C/C=C\C/C=C\C/C=C\C/C=C\CCCC(=O)O` [EPA, cis-5,8,11,14,17-eicosapentaenoic acid], in the assay with unfractionated LDL (unfractionated LDL, vs vehicle), the “inhibition of TBARS formation” value is over 90%. Also, the “reduction of sdLDL oxidation” value in the assay with sdLDL [1] is over 90%. Moreover, the “effect on sdLDL oxidation” value with human sdLDL (10.0 μM, after 4 hours, vs vehicle or DHA) is given as “significantly inhibited sdLDL oxidation”. Moreover, in the assay with human sdLDL (each agent at 10 μM, 1 hr, vs vehicle, 10 µM), the “inhibition of sdLDL oxidation (TBARS formation)” value was 93±2% and 92±8%. For the same compound, in assay [2], the “reduction of LOOH levels” value is on record as “greater than 90%”. The “reduction in cholesterol domain peaks vs vehicle” value in assay [3] was 65%. The same compound showed an MDA formation in the assay on sdLDL [4] of 0.2 ± 0.1 µM. The “inhibition of sdLDL oxidation” value in the assay with sdLDL [4] (vs vehicle controls) worked out at 94%.
Turning to `O=C(O)c1cccnc1` [Niacin, nicotinic acid], in the assay on unfractionated LDL (vs vehicle-treated controls), the “effect on unfractionated LDL oxidation” value is listed as “no significant effect”. Moreover, the “effect on sdLDL oxidation” value in the assay with human sdLDL (10 μM, 1 hr, vs vehicle-treated controls) is listed as “no significant effect”. Moreover, the “effect on cholesterol domains” value in assay [3] is recorded as “no significant changes in cholesterol domain size”. Moreover, the “effect on glucose-induced sdLDL oxidation” value with sdLDL [4] is recorded as “did not inhibit”.
